Assay results reported in US20020147210A1, “Methods for delaying recurrence of herpes virus symptoms” (3M Innovative Properties Company, priority 2000, published 2002).

Test system: recurrent herpes genitalis (herpes virus)
Test: Randomized, double-blind vehicle-controlled clinical study of resiquimod gel formulations topically applied to herpetic lesions of the external genitalia
Type: in vivo, human
Conditions: topical, patients with recurrent herpes genitalis, 6 month observation period
Method: Propylene glycol (700 g) and resiquimod (4-amino-2-ethoxymethyl-α,α-dimethyl-1H-imidazo[4,5-c]quinoline-1-ethanol, 1.4 g) were added to a 1000 mL glass beaker. The resulting mixture was heated (about 55° C.) with stirring until all of the resiquimod was dissolved. The resulting solution was added to the mixing bowl of a ROSS LDM-4 mixer. Triacetin (11,968.7 g) was added to the mixing bowl and the resulting mixture was mixed for 10 minutes at 36 rpm. Colloidal silicon dioxide (1,330.0 g, AEROSIL®200 from Degussa, Frankfurt, Germany) was added in five parts. After each addition the resulting mixture was mixed at ambient pressure for 1 to 2 minutes at 36 rpm and then under vacuum (18 inches of Hg below ambient pressure, […]) for about 9 minutes at 36 rpm. The sides of the mixing bowl and the mixing blades were scraped. The formulation was mixed under vacuum (17 inches of Hg below ambient pressure, […]) for about 10 minutes at 36 rpm. The resulting gel contained 0.01% resiquimod, 5.0% propylene glycol, 9.5% colloidal silicon dioxide, and 85.49% triacetin.
Using the method described above, a second formulation was prepared by combining 7.0 g of resiquimod, 700.0 g of propylene glycol, 11963.0 g of triacetin and 1,330.0 g of colloidal silicon dioxide. The resulting gel contained 0.05% resiquimod, 5.0% propylene glycol, 9.5% colloidal silicon dioxide, and 85.45% triacetin.
A randomized, double-blind vehicle (placebo)-controlled study was performed to evaluate single and multi-weekly doses of the resiquimod formulations prepared above topically applied to herpetic lesions on the skin of the external genitalia.
52 otherwise healthy patients (20 to 60 years of age, inclusive) with a history of recurrent herpes genitalis (≧6 episodes per year) participated in the study. […] After passing screening, patients were enrolled into a 12-week eligibility period to qualify for treatment by virtue of experiencing a herpetic recurrence. During the eligibility period patients' qualified for the treatment period by coming to the study site for treatment visit one within 24 hours of a recurrence. At this visit patients were stratified by sex and enrolled sequentially into an active treatment or vehicle treatment regimen.
The treatment period began with the first treatment visit and ended with the final treatment visit. The treatment groups were 0.05 percent resiquimod containing formulation or formulation alone (vehicle) 1×/week for 4 weeks; 0.05 percent resiquimod containing formulation or formulation alone 2×/week for 3 weeks; 0.01 percent resiquimod formulation or formulation alone 2×/week for 3 weeks; or 0.01 percent resiquimod formulation or formulation alone 3×/week for 3 weeks. […]

`CCOCc1nc2c(N)nc3ccccc3c2n1CC(C)(C)O` [Resiquimod, 4-amino-α,α-dimethyl-2-ethoxymethyl-1H-imidazo[4,5-c]quinoline-1-ethanol] was tested, and the “Median No. Days to Recurrence after treatment cessation” value (“Median No. Days to Recurrence” below) (0.01% resiquimod gel, 2×/wk, 3 weeks) was 172.5 days, the “Median No. Days to Recurrence” value (0.01% resiquimod gel, 3×/wk, 3 weeks) was >195 days and the “Median No. Days to Recurrence” value (0.05% resiquimod gel, 1×/wk, 4 weeks) was >60 days. The “Median No. Days to Recurrence” value (0.05% resiquimod gel, 2×/wk, 3 weeks) was 105 days.
